Measured values: US20230087766A1, “METHODS OF REACTIVATING LATENT HUMAN IMMUNODEFICIENCY VIRUS AND RELATED COMPOSITIONS” (priority 2017, published 2023)
Entries after “also recorded” stand apart in the source; their conditions may differ.

How the values were obtained:
Assay type in all cases: cell-based
[1] = tested on: latent HIV in resting CD4+ T cells from HIV-infected individuals under ART; assay: Quantitative Viral Outgrowth Assay (QVOA), p24 ELISA; settings: resting CD4+ T cells from 5 HIV-infected individuals under ART; ex vivo
Description: It was tested whether the histone crotonylation inducer, sodium crotonate, can reactivate latent HIV reservoirs from a patient under ART. Peripheral blood samples were obtained from 5 HIV-infected individuals with undetectable plasma viral loads and higher CD4+ T cell numbers (see Table 1). One million resting CD4+ T cells were treated with IL-2, PHA+IL-2, or IL-2+Na-Cro, and HIV p24 production was measured by QVOA using p24 ELISA as a measure of HIV reactivation.
Quantitative Viral Outgrowth Assay: Peripheral blood mononuclear cells (PBMC) were obtained from HIV-infected individuals on suppressive ART (n=5) by continuous-flow leukopheresis. Isolation of resting CD4+ T cells and quantification of replication competent virus was performed as previously described (see S. Dandekar, et al. Current HIV/AIDS reports 4, 10-15 (2007)). […] Cultures were scored as positive if p24 was detected at day 15 and was increased in concentration at day 19. […]

[2] = tested on: latent HIV in U1 cells; assay: Reactivation of latent HIV in U1 cells by RT-qPCR; settings: Na-Cro at 40 mM
Description: (§1) Cell culture: J-Lat Al cells (derived from Jurkat cells harboring HIV LTR-Tat-GFP gene) and U1 cells (promonocytic cell line harboring one copy of HIV genome with defective tat gene) were obtained from NIH AIDS Reagent Program and cultured at 37° C. with 5% CO2 in RPM11640 medium containing 10% FBS and 1% penicillin-streptomycin as previously described (see G. Jiang, et al. PLoS Pathogens 11, e1005066 (2015)).
(§2) For inhibiting ACSS2 and crotonylation, cells were pretreated with ACSS2 inhibitor, AR12 (SELLECK CHEMICALS™, Houston, Tex.), for 30 minutes, followed by Na-Cro treatment for 4 or 18 hours.
Real-Time PCR Analysis: HIV gene expression was measured using real-time PCR in J-Lat Al cells treated with LRAs. Total nucleic acid was extracted using RNEASY™ Kit, genomic DNA digested using DNase I and total RNA reverse transcribed using Superscript III to synthesize cDNA. […] […] TAMRA-3′ (SEQ ID NO:3).

[3] = tested on: latent HIV in U1 cells; assay: p24 ELISA in U1 cells; settings: day 6
Description: as §1, §2

[4] = tested on: J-Lat A1 cells; assay: Cellular viability by flow cytometry of live/dead staining; settings: Na-Cro 10 mM to 40 mM
Description: An increased concentration of Na-Cro was added in the J-Lat A1 cells, and cellular viability was evaluated by flow cytometry of live/dead staining.

[5] = tested on: latent HIV in primary CD4+ T cells from HIV-infected patients under suppressive ART; assay: HIV transcription by ddPCR in primary CD4+ T cells from HIV-infected patients; settings: primary CD4+ T cells of 6 patients; 40 mM Na-Cro or 12 nM PEP005; 6 hours; ddPCR
Description: Panels A-C illustrate that primary CD4+ T cells were treated with […] PMA 2 plus 2 μg/ml ionomycin, 12 nM PEP005, 40 mM Na-Cro, or 12 nM PEP005 combined with 40 mM Na-Cro for 6 hours. Viral transcription from total RNA was analyzed by RT-ddPCR with primers targeting initiation (TAR region) (see panel A), elongation (long LTR) (see panel B), or full transcription (poly A region) (see panel C) of the HIV genome. Panel D illustrates a working model of epigenetic regulation of HIV latency/transcription by histone crotonylation.
To validate this finding in the ex vivo primary CD4+ T cells from patients the peripheral blood samples from 6 HIV-infected patients under suppressive ART were obtained. They had undetectable plasma viral load (<20 copies/ml plasma) and >400 CD4+ T cell number per […] (see Table 1). Primary CD4+ T cells were treated with PMA/Ionomycin, PEP005, Na-Cro, or PEP005 in combination with Na-Cro for 6 hours. HIV transcription following reactivation was measured by digital droplet PCR (ddPCR) targeting TAR region (initiation), long LTR region (elongation), or Poly A region (full transcription) of HIV genome (see G. Jiang, et al. PLoS pathogens 11, e1005066 (2015); P. Kaiser, et al. Journal of virological methods 242, 1-8 (2017); and L. Shan, et al. Journal of Virology 87, 6521-6525 (2013)).
Primary CD4+ T Cell Isolation, Treatment, and Digital Droplet PCR Assays: Peripheral blood samples were obtained from HIV-infected individuals (age ranging from 46-62 years old) on suppressive ART for >8 years (n=6). The plasma viral loads were below the detective level (<20 copies/ml plasma) and the average CD4+ T cell number was 664.4±180.5 cells/ml. The primary CD4+ T cells were isolated using the EASYSEP™ kit ([…]™ Technologies Inc., Vancouver, BC, Canada) as previously described (see G. Jiang, et al. PLoS pathogens 11, el 005066 (2015) and G. Jiang, et al. AIDS 28, 1555-1566 (2014)). The purified CD4+ T cells were plated at a density of 0.5-1×10^6 cells and treated with Control, 200 ng/ml PMA plus 2 μM lonomycin, 12 nM PEP005, 40 mM Na-Cro, or 12 nM PEP005 plus 40 mM Na-Cro for 6 hours. Cell pellets were collected for RNA isolation. Initiation, elongation, or full transcription of HIV was analyzed with ddPCR assays as reported before (see G. Jiang, et al. PLoS pathogens 11, e1005066 (2015); P. Kaiser, et al. Journal of virological methods 242, 1-8 (2017); and L. Shan, et al. Journal of virology 87, 6521-6525 (2013)).

What does the source list for `C/C=C/C(=O)[O-].[Na+]` [Na-Cro, sodium crotonate]?
replication-competent HIV recovered (HIV reactivation, QVOA) [1]: four of the five participants; increase in viral transcription compared to untreated controls [2]: 6 fold; p24 antigen ([3]; 20 mM Na-Cro): over 500 pg/mL; p24 antigen ([3]; 40 mM Na-Cro): > 2000 pg/mL; cell toxicity [4]: not toxic to immune cells; also recorded: Minimal cell toxicity; elongation of HIV transcripts (long LTR), patients responding [5]: all 6 patients; full-length transcription of HIV (poly A region), patients responding [5]: 4 of the 6 patients; initiation of HIV transcription (TAR region), patients responding [5]: all 6 patients
